Assay results from patent US20100158808A1, “Altered Activity of Toll-Like Receptors” (priority 2003, published 2010).
Values belong to the substance of their own block, whether it stands above or below them.

Legend:
mice = assay: Experimental shock model (SIRS), D-galactosamine, i.p. injection; format: in vivo; conditions: for Survival in shock model: mice, i.p. with D-galactosamine
Protocol: Experimental shock model. Age- and sex-matched mice were injected with 5 mg of HS, 5 μg of LPS, 5 μg of Limulus anti-LPS factor, 5 mg of chondroitin sulfate, 200 U (−5 mg) heparin, 150 μg of CpG DNA, 1.5 U of elastase, or PBS mixed with 20 mg of D-galactosamine in a total volume of 500 μl of PBS by i.p. injection as previously described (Franks et al. (1991) Infect. Immun. 59:2609). Concentrations of HS and elastase were calculated by weight of lyophilized powder, and the doses used were near the LD50 based on dose-response experiments. In some experiments, the agonist was mixed with 5 or 20 μg of Limulus anti-LPS factor before injection. For some injections, enzymes were boiled at 100° C. for 60 minutes and vortexed vigorously, or preincubated with elastase inhibitor-1 for 4 hours at room temperature and then mixed with D-galactosamine before injection. Mice were monitored every hour for 48 hours and then euthanized.
During sepsis, Gram-negative bacteria shed LPS, which activates TLR4 on cells that then release inflammatory cytokines mediating systemic inflammation and death (Beutler (2000) Curr. Opin. Immunol. 12:20). To determine whether soluble HS can induce a model of systemic inflammatory response syndrome (SIRS) via activation of TLR4 in mice, HS was administered by i.p. injection to TLR4 wild type and mutant mice. This mouse model system has been used to study shock and a sepsis-like syndrome in response to microbial toxins (Galanos et al. (1979) Proc. Natl. Acad. Sci. USA 76:5939). […] Moreover, the observed responses were not due to contamination of HS by LPS, since the HS used was not contaminated with LPS.

TLR4 = biological target: T1, TLR4 (Mus musculus, UniProt Q9JHF9+Q9QUK6); assay: NFκB-luciferase reporter assay in HEK 293 cells stably expressing TLR4, MD2 and/or CD14; format: cell-based, murine; parameters: expressed in transfected cells; host or cells: HEK 293; conditions: HEK 293 cells lacking TLR4 and MD2 or CD14
T1 sequence (Q9QUK6 26-835): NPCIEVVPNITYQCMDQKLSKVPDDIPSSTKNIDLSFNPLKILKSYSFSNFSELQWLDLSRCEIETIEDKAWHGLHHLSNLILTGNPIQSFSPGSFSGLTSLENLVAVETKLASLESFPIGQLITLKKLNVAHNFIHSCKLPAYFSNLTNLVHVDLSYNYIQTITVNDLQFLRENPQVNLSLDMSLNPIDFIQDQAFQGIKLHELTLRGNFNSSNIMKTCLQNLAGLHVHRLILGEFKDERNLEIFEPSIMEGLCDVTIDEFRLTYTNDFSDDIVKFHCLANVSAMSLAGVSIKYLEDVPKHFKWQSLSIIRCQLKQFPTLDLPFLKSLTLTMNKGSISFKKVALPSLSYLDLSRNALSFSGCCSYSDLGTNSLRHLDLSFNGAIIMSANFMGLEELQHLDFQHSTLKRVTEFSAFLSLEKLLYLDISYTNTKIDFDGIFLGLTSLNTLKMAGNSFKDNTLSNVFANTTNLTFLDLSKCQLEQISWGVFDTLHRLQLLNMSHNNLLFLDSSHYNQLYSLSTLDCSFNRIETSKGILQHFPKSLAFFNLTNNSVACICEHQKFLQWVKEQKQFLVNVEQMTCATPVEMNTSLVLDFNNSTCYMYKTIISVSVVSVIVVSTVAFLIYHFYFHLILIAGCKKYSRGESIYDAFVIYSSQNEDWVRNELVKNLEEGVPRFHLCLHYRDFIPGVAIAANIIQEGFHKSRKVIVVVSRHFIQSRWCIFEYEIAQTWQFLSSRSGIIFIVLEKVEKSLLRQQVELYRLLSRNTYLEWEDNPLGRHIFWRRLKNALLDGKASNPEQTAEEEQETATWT
T1 sequence (Q9JHF9 19-160): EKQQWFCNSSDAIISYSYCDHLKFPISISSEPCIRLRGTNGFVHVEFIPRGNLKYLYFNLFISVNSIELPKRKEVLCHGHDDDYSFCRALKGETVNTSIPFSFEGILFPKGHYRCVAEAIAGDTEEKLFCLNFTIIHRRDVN
Protocol: Model ECM environment. Tissue culture plates were coated with ECM as follows. PAEC were seeded into 6-well (3×10^5 cells/well), 24-well (5×10^4 cells/well) or 100 mm (2×10^5 cells) fibronectin-coated tissue culture plates (BD Biosciences, San Jose, Calif.) in DMEM (Invitrogen) containing 10% fetal bovine serum supplemented with penicillin and streptomycin and 4% w/v of Dextran 40. The cell cultures were incubated at 37° C. in 5% CO2 humidified atmosphere for seven days and were supplemented with […] on day three and day five. After 7 days, endothelial cells were washed once with phosphate buffered saline (PBS) and lysed by exposure to 0.5% w/v Triton X-100 and 20 mM NH4OH in PBS (pH 7.4) at 37° C. for 20 minutes (Bonifacino, 1998). The wells were then washed 4 times with PBS (pH 7.4) and inspected microscopically to ensure removal of the cells. Plates were used immediately or were stored in PBS (pH 7.4) with […] at 4° C.
HEK 293 cells were stably transfected with the TLR4 and MD2 or CD14 expression plasmids using Superfect (Qiagen, Valencia, Calif.) following the manufacturer's instructions. HEK 293 cells expressing TLR4 and MD2 or CD14 were obtained by culturing the transfected cells with appropriate antibiotic selection medium, and were cloned by limiting dilution in the selection medium. HEK 293 cells expressing TLR4, MD2 and CD14 were generated by transfecting HEK 293 cells that expressed TLR4 and MD2 with the CD14 expression plasmid, and selecting clones using appropriate antibiotic containing medium. Cell lines expressing TLR4 and MD2 and/or CD14 were then maintained in DMEM supplemented with 10% fetal bovine serum and the appropriate selection antibiotics. Control cell lines were transfected with empty expression vectors and incubated in selection conditions as described above. Selected clones were tested for cell surface expression of the TLR4/MD2 complex and CD14 by flow cytometry using monoclonal antibodies specific for the TLR4/MD2 complex or CD14.
NFκB-luciferase reporter assays. Activation of NFκB was measured using a NFκB-luciferase reporter assay. HEK 293 cell lines stably expressing TLR4, MD2 and/or CD14, or control cells were seeded into 24 well tissue culture plates (2×10^5 cells/well) in 1.0 ml DMEM containing 10% fetal bovine serum and penicillin and streptomycin. The cells were allowed to adhere to the culture wells at 37° C. overnight and were then transfected with […] NFκB-firefly-luciferase using Superfect Transfection Reagent (Qiagen). Following transfection, the cells were washed once with phosphate buffered saline and cultured for 24 hours at 37° C. in 1.0 ml DMEM containing 0.5% fetal bovine serum. After various treatments, the culture medium was aspirated and the cells were washed once with PBS. The cells were lysed in […] Passive Lysis Buffer (Promega) with rocking at room temperature for 15 minutes. Renilla- and Firefly-luciferase were assayed simultaneously using the Dual-Luciferase Reporter Assay System (Promega) and a TD-20/20 luminometer (Turner Designs, Sunnyvale, Calif.). Activation of NFκB was reported as a ratio of the firefly luciferase activity to the constitutively expressed Renilla luciferase internal control, and is the mean of triplicate wells.
To determine whether and under what conditions HS stimulates TLR4, various combinations of TLR4, MD2 and CD14, components of the putative TLR4 receptor complex, were stably expressed in HEK 293 cells and the effect of HS on TLR4 signaling in the transfected cells was examined (FIG. 1). The HEK 293 cells expressing receptor components were transiently transfected with a NFκB-firefly luciferase reporter construct along with a Renilla-luciferase internal control reporter construct. […]

TLR4/MD2 complex = biological target: T2, TLR4/MD2 complex (Mus musculus, UniProt Q9JHF9+Q9QUK6); assay: Cell surface expression of TLR4/MD2 in HEK/TLR4(+) cells by flow cytometry; format: cell-based, murine
T2 construct: expressed in transfected cells; host or cells: HEK 293 clone HEK/TLR4(+)
T2 sequence (Q9QUK6 26-835): T1 sequence (Q9QUK6 26-835)
T2 sequence (Q9JHF9 19-160): T1 sequence (Q9JHF9 19-160)
Protocol: FIG. 2A is a graph plotting the level of reporter activity in HEK/TLR4(+) cells transfected with NFκB- and control-luciferase reporter plasmids and then stimulated with intact HS or LPS, or with HS or LPS that had been treated with nitrous acid (HNO2) at pH 4.0 or pH 1.5. Controls were treated with PBS vehicle. […] FIG. 2C is a graph showing the effect of PBS, HS, depolymerized HS (nitrous acid, pH 1.5), and recombinant human IL-1α on cell surface expression of TLR4/MD2 in HEK/TLR4(+) cells. Expression of TLR4 on the cell surface was determined by flow cytometry using a monoclonal antibody specific to the TLR4/MD2 complex. Values are the mean of triplicate wells and are representative of three separate experiments.
To determine whether the effect of HS occurred through specific action on TLR4, surface expression of the TLR4/MD2 complex on cells treated with HS was examined. […] Thus, HEK/TLR4(+) cells responded to HS by activating NFκB and mobilizing receptor complexes.

Substance: Boc-Ala-Ala-Ala-NHO-Bz [elastase inhibitor-1]
Reduction of the death rate after elastase injection (mice; elastase preincubated with elastase inhibitor-1 for 4 hours): 50%

Substance: chondroitin sulfate
Survival in shock model (mice): all but one mouse

Substance: heparin
Survival in shock model (mice): survived

Activation of NFκB-luciferase reporter (TLR4): activated
Change in surface expression of TLR4/MD2 (TLR4/MD2 complex): did not change
Substance: recombinant human IL-1α: recombinant human IL-1α, activates NFκB via the IL-1 receptor
